According to publication PMC10094450, “Investigation of the Entry Pathway and Molecular Nature of σ1 Receptor Ligands” (International Journal of Molecular Sciences, 2023):
Read-outs that look alike come from different tables or passages of the source.

Legend:
[1] = target: T1, Hsσ1-R (Homo sapiens, UniProt Q99720); test: Fluorescence titration (intrinsic tryptophan fluorescence quenching) of purified Hsσ1-R
[2] = target: T1, Hsσ1-R; design: FLAG; made in house; host or cells: Sf9 insect cells (baculovirus, pFastbac1); method as in PMID 33525510; details: purified σ1R immobilized on a matrix; read-out: KD by SPR; cited from earlier work
[3] = read-out: KD2, low-affinity site, two-site model, 25 °C

T1 sequence (Q99720 whole entry): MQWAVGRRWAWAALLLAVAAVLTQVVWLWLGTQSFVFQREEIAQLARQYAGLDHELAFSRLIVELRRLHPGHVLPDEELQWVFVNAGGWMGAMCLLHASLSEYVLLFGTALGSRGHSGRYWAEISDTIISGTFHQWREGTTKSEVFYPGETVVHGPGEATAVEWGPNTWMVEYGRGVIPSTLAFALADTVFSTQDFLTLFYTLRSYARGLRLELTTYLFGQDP

Kd ([1]; read-out: KD1, high-affinity site, two-site model, 25 °C) [µM]	Kd [1, 3] [µM]	KD for the high affinity site, fold better than that of pridopidine ([1]; versus pridopidine, same assay) [fold]	Kd [1] [µM]	Compound	Kd [2] [µM]
0.01 ± 0.004	15.8 ± 4.03	25		CC(=O)C1=CC[C@H]2[C@@H]3CCC4=CC(=O)CC[C@]4(C)[C@H]3CC[C@]12C [16,17-didehydroprogesterone]	
	33.1 ± 14.4		0.019 ± 0.015	COc1cc(C(C)=O)ccc1OCCCN1CCC(c2noc3cc(F)ccc23)CC1 [Iloperidone]	5
